# Patent US8658604B2, “Template-fixed beta-hairpin peptidomimetics with protease inhibitory activity” (Polyphor Ltd, priority 2005, dated 2014)
# Where a SMILES comes first, the peptide text is derived from it.
# Columns and labels:
# [1] = target: Trypsin, from human pancreas (Homo sapiens, UniProt P07477); experiment: Enzymatic assay, trypsin; details: at 100 μM
# Chymase, from human skin = target: T1, Chymase, from human skin (Homo sapiens, UniProt P23946); experiment: Enzymatic assay, chymase
# T1 sequence (P23946 22-247): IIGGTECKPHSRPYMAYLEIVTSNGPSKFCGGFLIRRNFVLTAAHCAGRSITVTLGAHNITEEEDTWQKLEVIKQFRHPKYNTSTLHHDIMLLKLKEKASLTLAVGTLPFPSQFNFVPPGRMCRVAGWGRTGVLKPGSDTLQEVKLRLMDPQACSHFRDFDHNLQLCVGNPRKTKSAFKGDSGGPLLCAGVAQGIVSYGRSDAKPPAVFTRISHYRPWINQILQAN
# [2] = target: T2, Elastase from human neutrophils (Homo sapiens, UniProt P08246); experiment: Enzymatic assay, elastase; details: Elastase IC50
# T2 sequence (P08246 30-267): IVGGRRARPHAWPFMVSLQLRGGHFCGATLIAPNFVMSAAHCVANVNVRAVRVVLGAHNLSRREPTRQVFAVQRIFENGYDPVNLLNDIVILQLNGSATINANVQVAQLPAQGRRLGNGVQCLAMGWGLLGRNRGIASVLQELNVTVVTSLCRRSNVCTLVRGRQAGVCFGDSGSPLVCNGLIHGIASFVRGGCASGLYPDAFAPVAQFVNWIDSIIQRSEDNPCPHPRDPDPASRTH
# [3] = target: Thrombin, from Human Plasma (Homo sapiens, UniProt P00734); experiment: Enzymatic assay, thrombin
# [4] = tested on: Tryptase, from human lung; experiment: Enzymatic assay, tryptase; details: at 100 μM
# [5] = target: Urokinase from human urine (Homo sapiens, UniProt P00749); experiment: Enzymatic assay, urokinase
# [6] = target: T3, CathepsinG, from human neutrophils (Homo sapiens, UniProt P08311); experiment: Enzymatic assay, cathepsin G; details: for IC50: Cathepsin G IC50
# T3 sequence (P08311 21-244): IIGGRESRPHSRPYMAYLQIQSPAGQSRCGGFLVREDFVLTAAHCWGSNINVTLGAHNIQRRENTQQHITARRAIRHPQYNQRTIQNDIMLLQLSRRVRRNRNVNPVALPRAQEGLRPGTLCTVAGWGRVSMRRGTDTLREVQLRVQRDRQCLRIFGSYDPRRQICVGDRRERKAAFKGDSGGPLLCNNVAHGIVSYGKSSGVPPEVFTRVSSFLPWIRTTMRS
# [7] = target: Chymotrypsin, from human pancreas (Homo sapiens, UniProt P17538); experiment: Enzymatic assay, chymotrypsin; details: at 100 μM
# [8] = target: Coagulation Factor Xa, from uman plasma (Homo sapiens, UniProt P00742); experiment: Enzymatic assay, coagulation factor Xa
# Chain of Coagulation Factor Xa, from uman plasma (P00742 235-488 limits assumed): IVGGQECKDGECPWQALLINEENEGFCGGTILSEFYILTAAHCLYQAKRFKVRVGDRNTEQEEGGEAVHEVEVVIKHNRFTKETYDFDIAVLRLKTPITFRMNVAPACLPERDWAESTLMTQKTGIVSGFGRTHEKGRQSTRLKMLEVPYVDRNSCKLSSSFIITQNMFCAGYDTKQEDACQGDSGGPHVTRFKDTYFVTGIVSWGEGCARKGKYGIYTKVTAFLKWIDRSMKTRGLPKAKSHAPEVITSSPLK
# Chain of Coagulation Factor Xa, from uman plasma (P00742 41-179 limits assumed): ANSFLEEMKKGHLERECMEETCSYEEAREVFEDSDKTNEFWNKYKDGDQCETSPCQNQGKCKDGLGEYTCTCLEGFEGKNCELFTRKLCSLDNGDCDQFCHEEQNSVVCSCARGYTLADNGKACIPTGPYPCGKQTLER
# Chain of Chymotrypsin, from human pancreas (P17538 19-263): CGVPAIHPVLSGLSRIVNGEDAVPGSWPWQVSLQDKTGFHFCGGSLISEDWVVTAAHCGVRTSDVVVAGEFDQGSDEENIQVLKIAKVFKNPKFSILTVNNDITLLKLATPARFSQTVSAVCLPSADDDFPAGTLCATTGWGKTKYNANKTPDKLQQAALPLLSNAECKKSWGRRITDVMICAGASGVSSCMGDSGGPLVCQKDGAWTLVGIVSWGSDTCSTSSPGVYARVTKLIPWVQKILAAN
SMILES,Trypsin at 100 μM % [1] [%],"Chymase at 100 μM % (Chymase, from human skin) [%]",IC50 [2] [nM],Thrombin at 100 μM % [3] [%],Tryptase At 100 μM % [4] [%],Urokinase at 100 μM % [5] [%],Cathepsin G at 100 μM % [6] [at 100%],Chymotrypsin at 100 μM % [7] [%],FXa at 100 μM % [8] [%],IC50 [6] [nM],Tryptase at 100 μM % [4] [%]
"CC[C@H](C)[C@@H]1NC(=O)[C@H](CO)NC(=O)[C@H](C)NC(=O)[C@H]([C@@H](C)O)NC(=O)[C@@H]2CSSC[C@H](NC(=O)[C@H](CCC(N)=O)NC(=O)[C@@H]3CCCN3C(=O)[C@@H]3CCCN3C1=O)C(=O)N[C@@H](CCC(N)=O)C(=O)N1CCC[C@@H]1C(=O)N1CCC[C@H]1C(=O)N[C@@H](CCc1ccccc1)C(=O)N2 [Ex. 143] (HELM PEPTIDE1{[O=C([C@H](CCc1ccccc1)N[*:1])[*:2]].C.T.A.S.I.P.P.Q.C.Q.[dP].P}$PEPTIDE1,PEPTIDE1,2:R3-10:R3|PEPTIDE1,PEPTIDE1,1:R1-13:R2$$$V2.0)",12,0,15,12,18,8,28,91,0,,
"CC[C@H](C)[C@@H]1NC(=O)[C@H](CO)NC(=O)[C@H](C)NC(=O)[C@H]([C@@H](C)O)NC(=O)[C@@H]2CSSC[C@H](NC(=O)[C@H](CCC(N)=O)NC(=O)[C@@H]3CCCN3C(=O)[C@@H]3CCCN3C1=O)C(=O)N[C@@H](Cc1ccccc1)C(=O)N1CCC[C@@H]1C(=O)N1CCC[C@H]1C(=O)N[C@@H](CCc1ccccc1)C(=O)N2 [Ex. 146] (HELM PEPTIDE1{[O=C([C@H](CCc1ccccc1)N[*:1])[*:2]].C.T.A.S.I.P.P.Q.C.F.[dP].P}$PEPTIDE1,PEPTIDE1,2:R3-10:R3|PEPTIDE1,PEPTIDE1,1:R1-13:R2$$$V2.0)",3,0,12,11,22,0,1,87,1,,
"CCCCCCCC[C@@H]1NC(=O)[C@@H]2CCCN2C(=O)[C@H]2CCCN2C(=O)[C@H](Cc2ccc(O)cc2)NC(=O)[C@H](CCCCN)NC(=O)[C@H](CCC(N)=O)NC(=O)[C@@H]2CCCN2C(=O)[C@@H]2CCCN2C(=O)[C@H]([C@@H](C)CC)NC(=O)[C@H](CO)NC(=O)[C@H](C)NC(=O)[C@H]([C@@H](C)O)NC(=O)[C@H](CCC(=O)O)NC1=O [Ex. 156] (HELM PEPTIDE1{[CCCCCCCC[C@H](N[*:1])C(=O)[*:2]].E.T.A.S.I.P.P.Q.K.Y.[dP].P}$PEPTIDE1,PEPTIDE1,1:R1-13:R2$$$V2.0)",0,0,7.5,17,15,7,46,5,0,,
"CCCCCCCC[C@@H]1NC(=O)[C@H](CO)NC(=O)[C@H](C)NC(=O)[C@H]([C@@H](C)O)NC(=O)[C@@H]2CSSC[C@H](NC(=O)[C@H](CCC(N)=O)NC(=O)[C@@H]3CCCN3C(=O)[C@@H]3CCCN3C1=O)C(=O)N[C@@H](Cc1ccc(O)cc1)C(=O)N1CCC[C@@H]1C(=O)N[C@@H](CCC(N)=O)C(=O)N[C@@H](CCCC)C(=O)N2 [compound 169] (HELM PEPTIDE1{[Nle].C.T.A.S.[CCCCCCCC[C@H](N[*:1])C(=O)[*:2]].P.P.Q.C.Y.[dP].Q}$PEPTIDE1,PEPTIDE1,2:R3-10:R3|PEPTIDE1,PEPTIDE1,1:R1-13:R2$$$V2.0)",10.8,0,18,20.6,4.2,10.4,,79.6,13.3,20300,
"CCCC[C@@H]1NC(=O)[C@@H]2CCCN2C(=O)[C@H]2CCCN2C(=O)[C@H](Cc2ccc(O)cc2)NC(=O)[C@@H]2CSSC[C@H](NC1=O)C(=O)N[C@@H]([C@@H](C)O)C(=O)N[C@@H](C)C(=O)N[C@@H](CO)C(=O)N[C@@H]([C@@H](C)CC)C(=O)N1CCC[C@H]1C(=O)N1CC(NC(=O)c3ccccc3)C[C@H]1C(=O)N[C@@H](CCC(N)=O)C(=O)N2 (single isomer, unassigned) [Ex. 138]",12.2,4.6,19,17.1,0,14.4,,77.1,12.6,43900,
"CC[C@H](C)[C@@H]1NC(=O)[C@H](CO)NC(=O)[C@H](C)NC(=O)[C@H]([C@@H](C)O)NC(=O)[C@@H]2CSSC[C@H](NC(=O)[C@H](CCC(N)=O)NC(=O)[C@@H]3CCCN3C(=O)[C@@H]3CCCN3C1=O)C(=O)N[C@@H](Cc1ccc(O)cc1)C(=O)N[C@H](CCCCN)C(=O)N[C@@H](CCC(=O)O)C(=O)N[C@@H](CCc1ccccc1)C(=O)N2 [compound 174] (HELM PEPTIDE1{[O=C([C@H](CCc1ccccc1)N[*:1])[*:2]].C.T.A.S.I.P.P.Q.C.Y.[dK].E}$PEPTIDE1,PEPTIDE1,2:R3-10:R3|PEPTIDE1,PEPTIDE1,1:R1-13:R2$$$V2.0)",7,0,12,11,10,1,56,85,3,,
"CCCCCCCC[C@@H]1NC(=O)[C@H](CO)NC(=O)[C@H](C)NC(=O)[C@H]([C@@H](C)O)NC(=O)[C@@H]2CSSC[C@H](NC(=O)[C@H](CCC(N)=O)NC(=O)[C@@H]3CCCN3C(=O)[C@@H]3CCCN3C1=O)C(=O)N[C@@H](CCC(N)=O)C(=O)N1CCC[C@@H]1C(=O)N1CCC[C@H]1C(=O)N[C@@H](CCc1ccccc1)C(=O)N2 [Ex. 153] (HELM PEPTIDE1{[O=C([C@H](CCc1ccccc1)N[*:1])[*:2]].C.T.A.S.[CCCCCCCC[C@H](N[*:1])C(=O)[*:2]].P.P.Q.C.Q.[dP].P}$PEPTIDE1,PEPTIDE1,2:R3-10:R3|PEPTIDE1,PEPTIDE1,1:R1-13:R2$$$V2.0)",8,0,8.5,16,9,16,56,84,11,,
"CC[C@H](C)[C@@H]1NC(=O)[C@@H]2CCCN2C(=O)[C@@H]2CCCN2C(=O)[C@H](CC(=O)O)NC(=O)[C@H](CO)NC(=O)[C@H](CCCCN)NC(=O)[C@H]([C@@H](C)O)NC(=O)[C@@H]2CSSC[C@H](NC1=O)C(=O)N[C@@H]([C@@H](C)O)C(=O)N1CCC[C@@H]1C(=O)N1CCC[C@H]1C(=O)N[C@@H](CCc1ccccc1)C(=O)N2 [Ex. 28] (HELM PEPTIDE1{[O=C([C@H](CCc1ccccc1)N[*:1])[*:2]].C.T.K.S.D.P.P.I.C.T.[dP].P}$PEPTIDE1,PEPTIDE1,2:R3-10:R3|PEPTIDE1,PEPTIDE1,1:R1-13:R2$$$V2.0)",95,0,> 100000,12,,1,,32,6,39,0
